Laboratory results from patent publication US9108854B2, “Biocidal colloidal dispersions of silica particles with silver ions adsorbed thereon” (PREBONA AB, priority 2009, dated 2015).

Test system: fungi
Assay: Fungal growth on treated slices of French bread
Conditions: slice brushed on all sides with 1000 ppm Ag; 3 days in warm and humid atmosphere, 20-35° C.
Experimental: Slices of French bread from a local baker were used as substrates for fungal growth. • 1. Bread slice was brushed on all sides with the sol containing 1000 ppm Ag • 2. […] Bread slice was untreated.
The bread slices on a dinner plate were put in a plastic bag, which in turn was placed in a glassed-in porch where the temperature varied between 20 and 35° C. over the day.

silver nitrate [AgNO3 solution]
resistance of bread slice to fungi attack: affords some protection
